Drawing on ChEMBL document CHEMBL1201862, “PubChem BioAssay data set” (2004), this text covers IC50, EC50 and AC50 for 18 molecules.

For one assay, the target named is T1, Estrogen receptor (Homo sapiens, UniProt P03372).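 Further: potency for inhibiting coactivator peptide recruitment to the receptor.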
T1 sequence (P03372 whole entry): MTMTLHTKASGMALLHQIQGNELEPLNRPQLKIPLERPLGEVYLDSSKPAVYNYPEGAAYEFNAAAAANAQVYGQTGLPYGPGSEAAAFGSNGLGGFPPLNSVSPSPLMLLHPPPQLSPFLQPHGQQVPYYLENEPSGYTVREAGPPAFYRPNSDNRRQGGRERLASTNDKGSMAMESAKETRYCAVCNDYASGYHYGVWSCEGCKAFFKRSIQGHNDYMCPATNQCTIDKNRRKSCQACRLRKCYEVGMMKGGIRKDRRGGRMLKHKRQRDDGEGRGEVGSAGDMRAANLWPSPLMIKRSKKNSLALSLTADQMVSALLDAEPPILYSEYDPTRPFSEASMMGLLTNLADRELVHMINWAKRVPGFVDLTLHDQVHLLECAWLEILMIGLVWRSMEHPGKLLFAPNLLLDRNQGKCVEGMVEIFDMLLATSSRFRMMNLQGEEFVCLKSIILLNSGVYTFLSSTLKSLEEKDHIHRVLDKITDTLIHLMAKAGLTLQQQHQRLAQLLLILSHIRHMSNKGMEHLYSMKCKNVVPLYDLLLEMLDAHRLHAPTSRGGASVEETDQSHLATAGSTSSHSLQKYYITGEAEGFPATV

In a further assay the target is Prothrombin (Homo sapiens, UniProt P00734). In words: Thrombin 1536 HTS Dose Response Confirmation. [Related pubchem assays: 1046 (Thrombin 1536 HTS; hits were confirmed in this assay)]. The assay is classed as functional.
Assay [1] concerns the target T2, Aryl hydrocarbon receptor (Homo sapiens, UniProt P35869).
T2 sequence (P35869 whole entry): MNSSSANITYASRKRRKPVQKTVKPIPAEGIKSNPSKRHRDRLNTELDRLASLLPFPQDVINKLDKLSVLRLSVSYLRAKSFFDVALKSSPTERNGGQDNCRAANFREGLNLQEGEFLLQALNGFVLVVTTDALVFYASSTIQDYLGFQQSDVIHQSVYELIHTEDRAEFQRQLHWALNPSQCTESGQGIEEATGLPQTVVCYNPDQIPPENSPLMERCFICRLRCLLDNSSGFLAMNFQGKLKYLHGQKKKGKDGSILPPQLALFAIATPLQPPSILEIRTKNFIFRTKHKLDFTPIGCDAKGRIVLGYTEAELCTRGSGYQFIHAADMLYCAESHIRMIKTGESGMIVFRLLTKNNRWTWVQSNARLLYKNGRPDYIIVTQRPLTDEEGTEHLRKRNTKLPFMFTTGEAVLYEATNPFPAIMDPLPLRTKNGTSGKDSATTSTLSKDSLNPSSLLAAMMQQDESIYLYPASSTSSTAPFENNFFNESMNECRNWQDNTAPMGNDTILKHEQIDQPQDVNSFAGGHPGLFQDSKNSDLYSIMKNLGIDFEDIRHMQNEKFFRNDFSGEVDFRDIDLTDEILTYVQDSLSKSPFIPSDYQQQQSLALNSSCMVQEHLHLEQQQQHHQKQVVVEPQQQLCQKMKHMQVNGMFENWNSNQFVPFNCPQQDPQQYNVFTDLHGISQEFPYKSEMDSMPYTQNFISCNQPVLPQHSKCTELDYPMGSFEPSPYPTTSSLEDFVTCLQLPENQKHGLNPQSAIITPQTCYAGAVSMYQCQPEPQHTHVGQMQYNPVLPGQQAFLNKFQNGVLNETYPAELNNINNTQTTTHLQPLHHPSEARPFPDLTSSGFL
Description: Luminescence-based cell-based high throughput dose response assay for activators of the Aryl Hydrocarbon Receptor (AHR). [Related pubchem assays: 2796 (Primary screen (AHR activators in singlicate)), 2845 (Confirmation screen (AHR activators in triplicate)), 434939 (Counterscreen (PXR activators in triplicate)), 2804 (Summary (AHR activators))]. Format: ADME. Background: A counterscreen serves to expose hits that act by an unwanted route or on another target.

In another assay the test system is H9c2. Description: cells. The assay is classed as functional, cell-based. Particulars: Rattus norvegicus, H9c2, Myocardium.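 Further: confirmatory concentration-response retest of ultra-high-throughput screening hits for modulation of myocardial damage; cell death induced by hydrogen peroxide oxidative stress; compound pretreatment for 60 min then peroxide exposure for 2 h; potency is for protecting the cells against peroxide damage rather than for killing them.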
Another assay deals with T3, Aminopeptidase N (Plasmodium falciparum FcB1/Columbia, UniProt O96935).
T3 sequence (O96935 whole entry): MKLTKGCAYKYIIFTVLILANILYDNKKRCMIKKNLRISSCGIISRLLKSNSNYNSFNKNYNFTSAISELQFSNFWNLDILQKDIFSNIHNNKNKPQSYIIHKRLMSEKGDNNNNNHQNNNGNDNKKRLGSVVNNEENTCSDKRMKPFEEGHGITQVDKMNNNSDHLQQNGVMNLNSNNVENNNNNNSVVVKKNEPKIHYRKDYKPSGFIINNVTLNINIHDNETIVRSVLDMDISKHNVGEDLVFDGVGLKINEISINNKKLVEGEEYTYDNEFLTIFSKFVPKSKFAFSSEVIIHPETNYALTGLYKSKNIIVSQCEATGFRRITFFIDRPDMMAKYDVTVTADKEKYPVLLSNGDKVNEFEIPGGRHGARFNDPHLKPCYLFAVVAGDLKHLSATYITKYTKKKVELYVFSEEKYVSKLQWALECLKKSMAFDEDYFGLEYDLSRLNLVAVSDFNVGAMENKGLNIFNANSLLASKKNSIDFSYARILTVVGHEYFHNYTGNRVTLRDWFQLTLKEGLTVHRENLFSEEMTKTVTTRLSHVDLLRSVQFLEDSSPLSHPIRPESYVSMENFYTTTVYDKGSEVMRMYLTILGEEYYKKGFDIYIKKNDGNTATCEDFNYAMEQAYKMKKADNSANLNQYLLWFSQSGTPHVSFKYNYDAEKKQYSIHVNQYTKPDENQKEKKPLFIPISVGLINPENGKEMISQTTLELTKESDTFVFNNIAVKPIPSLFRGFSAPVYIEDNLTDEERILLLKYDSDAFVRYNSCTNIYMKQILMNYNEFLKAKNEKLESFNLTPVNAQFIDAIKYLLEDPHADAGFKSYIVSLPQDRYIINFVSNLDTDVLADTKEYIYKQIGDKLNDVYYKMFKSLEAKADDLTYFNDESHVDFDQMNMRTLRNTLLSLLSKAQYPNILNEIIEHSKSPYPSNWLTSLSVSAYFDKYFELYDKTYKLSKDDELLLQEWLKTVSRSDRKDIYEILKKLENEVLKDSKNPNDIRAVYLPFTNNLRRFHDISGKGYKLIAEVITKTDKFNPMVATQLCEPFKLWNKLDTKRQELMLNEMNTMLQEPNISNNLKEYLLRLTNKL
Description: malaria alanyl aminopeptidase activity blockers – biochemical, fluorogenic H-Leu-NHMec substrate, 1536-well (AID 1445). Set-up: species or system Plasmodium falciparum 3D7, 3D7.

The target in another assay is Large T antigen (Simian virus 40, UniProt P03070). The assay is classed as functional, Betapolyomavirus macacae.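 Further: Confirmatory-stage PubChem screen for compounds that inhibit SV40 T antigen.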
In assay [2] the target is Eukaryotic translation initiation factor 4H (Homo sapiens, UniProt Q15056). In words: eIF4H binding inhibition – biochemical, uHTS, fluorescence polarization, translation initiation inhibitor project, primary screen (AID 2012). (Fluorescence polarisation rises when a labelled molecule tumbles more slowly, as on binding a larger partner.)
Assay [3] addresses Polyadenylate-binding protein 1 (Homo sapiens, UniProt P11940). In words: blockers of PABP interaction with poly(A) – biochemical, fluorescence polarization, […] (AID 2014).
Assay [4] is described as follows: HIV-1 Vif–A3G interaction blockers – biochemical, TR-FRET, GST-Vif 1-94, biotin-A3G peptide, dose response retest, primary screen (AID 1117319).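 Further: TR-FRET signal of purified GST-Vif binding a biotinylated A3G peptide; inhibitors lower the FRET signal by blocking Vif and A3G binding.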 The assay is classed as functional.
Assay [5] concerns the target DNA dC->dU-editing enzyme APOBEC-3G (Homo sapiens, UniProt Q9HC16). Format: functional.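 Further: Dose-response counterscreen measuring inhibition of APOBEC3G DNA deaminase activity, run while confirming APOBEC3A inhibitors.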
In assay [6] the target is DNA dC->dU-editing enzyme APOBEC-3A (Homo sapiens, UniProt P31941). In words: Dose Response confirmation of small molecule APOBEC3A DNA Deaminase Inhibitors via a fluorescence-based single-stranded DNA deaminase assay. [Related pubchem assays (depositor defined):AID493011, AID493024]. The assay is classed as functional.
Assay [7] concerns the target T4, Rac GTPase-activating protein 1 (Homo sapiens, UniProt Q9H0H5).
T4 sequence (Q9H0H5 whole entry): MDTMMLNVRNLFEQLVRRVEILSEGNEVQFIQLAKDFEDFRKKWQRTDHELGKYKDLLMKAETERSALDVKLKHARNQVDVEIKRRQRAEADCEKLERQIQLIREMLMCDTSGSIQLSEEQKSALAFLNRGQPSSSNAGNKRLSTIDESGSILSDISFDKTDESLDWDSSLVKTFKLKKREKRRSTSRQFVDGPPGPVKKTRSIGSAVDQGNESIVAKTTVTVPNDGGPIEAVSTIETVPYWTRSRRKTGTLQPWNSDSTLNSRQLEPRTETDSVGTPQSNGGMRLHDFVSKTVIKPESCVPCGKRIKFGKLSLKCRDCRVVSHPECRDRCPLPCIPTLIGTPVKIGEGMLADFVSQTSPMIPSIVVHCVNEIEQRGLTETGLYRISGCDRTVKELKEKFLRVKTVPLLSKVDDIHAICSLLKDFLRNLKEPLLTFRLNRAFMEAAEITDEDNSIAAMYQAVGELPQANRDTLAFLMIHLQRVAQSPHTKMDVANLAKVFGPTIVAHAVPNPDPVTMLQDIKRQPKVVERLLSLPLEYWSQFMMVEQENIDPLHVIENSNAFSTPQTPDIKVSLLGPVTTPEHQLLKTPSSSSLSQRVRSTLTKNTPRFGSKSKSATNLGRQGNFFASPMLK
Description: blockers of MgcRacGAP-driven Rac1 GTP hydrolysis – biochemical, ADP Hunter fluorescence, primary and confirmatory, confirmation (AID 624330). Format: functional.

The target in assay [8] is FAD-linked sulfhydryl oxidase ALR (Homo sapiens, UniProt P55789). In words: ALR-catalysed DTT oxidation blockers – biochemical, H2O2 detection, luminescence, cherry-pick, dose response (AID 493248).
Assay [9] in a line: fluconazole-exposed Candida albicans growth modulators – fluorescence, retest, confirmation (AID 2467). The assay is classed as functional, cell-based.
For another assay, the target named is Nonstructural protein 1 (Influenza A virus, UniProt Q194T2). The assay is classed as functional, Influenza A virus (A/California/07/2009(H1N1)).
The nature of assay [10]: NIH-3T3 fibroblast cytotoxicity, dose response, cytotoxicity control, cell-based, fluorescence, Alamar Blue, secondary assay (AID 2327).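 Further: NIH-3T3 mouse fibroblasts cultured with fluconazole at 8 µg/mL.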 The assay is classed as functional.

For orientation: IC50 means the concentration at which inhibition is half-maximal. A word on the EC50: it is the concentration at which the effect is half-maximal. What is called AC50 is the concentration at which the activity in the assay is half-maximal.

The source made the active and inactive calls.

Polyadenylate-binding protein 1, sequence (P11940 whole entry): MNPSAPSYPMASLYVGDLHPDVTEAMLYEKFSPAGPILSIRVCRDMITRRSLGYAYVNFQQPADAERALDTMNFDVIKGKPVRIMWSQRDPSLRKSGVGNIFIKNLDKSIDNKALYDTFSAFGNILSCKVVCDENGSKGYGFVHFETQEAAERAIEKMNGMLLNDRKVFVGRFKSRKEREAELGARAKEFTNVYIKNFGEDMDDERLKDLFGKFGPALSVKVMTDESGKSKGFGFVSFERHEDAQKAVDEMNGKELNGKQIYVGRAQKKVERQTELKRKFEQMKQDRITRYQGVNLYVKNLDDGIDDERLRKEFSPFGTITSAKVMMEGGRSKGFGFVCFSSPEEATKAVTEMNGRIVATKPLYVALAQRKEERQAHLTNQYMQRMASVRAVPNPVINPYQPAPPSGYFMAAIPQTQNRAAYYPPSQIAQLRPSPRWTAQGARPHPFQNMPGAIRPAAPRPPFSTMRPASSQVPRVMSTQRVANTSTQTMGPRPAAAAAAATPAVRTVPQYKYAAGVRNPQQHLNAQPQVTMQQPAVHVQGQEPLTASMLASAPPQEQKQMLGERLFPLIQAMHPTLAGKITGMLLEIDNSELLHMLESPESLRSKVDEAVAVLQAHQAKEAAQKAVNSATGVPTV
Large T antigen, sequence (P03070 whole entry): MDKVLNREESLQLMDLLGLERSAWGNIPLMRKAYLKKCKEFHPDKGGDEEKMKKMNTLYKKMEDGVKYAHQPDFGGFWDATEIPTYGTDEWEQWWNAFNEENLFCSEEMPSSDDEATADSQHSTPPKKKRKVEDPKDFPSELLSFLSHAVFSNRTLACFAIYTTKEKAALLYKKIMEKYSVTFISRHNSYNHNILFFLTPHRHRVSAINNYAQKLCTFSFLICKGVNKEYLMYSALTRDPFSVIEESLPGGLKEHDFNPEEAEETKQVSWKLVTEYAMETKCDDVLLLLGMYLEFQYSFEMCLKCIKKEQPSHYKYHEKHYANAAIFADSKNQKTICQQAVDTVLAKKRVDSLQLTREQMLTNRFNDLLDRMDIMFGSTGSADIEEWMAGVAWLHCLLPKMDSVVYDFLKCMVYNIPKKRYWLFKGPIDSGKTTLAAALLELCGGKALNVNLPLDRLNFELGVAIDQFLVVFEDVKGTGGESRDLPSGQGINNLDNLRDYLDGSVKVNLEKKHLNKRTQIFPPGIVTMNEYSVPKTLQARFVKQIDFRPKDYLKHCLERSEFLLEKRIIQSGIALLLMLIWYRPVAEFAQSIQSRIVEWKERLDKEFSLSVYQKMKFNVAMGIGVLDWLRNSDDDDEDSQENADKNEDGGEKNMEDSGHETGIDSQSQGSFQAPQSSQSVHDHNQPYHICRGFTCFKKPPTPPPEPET
DNA dC->dU-editing enzyme APOBEC-3A, sequence (P31941 whole entry): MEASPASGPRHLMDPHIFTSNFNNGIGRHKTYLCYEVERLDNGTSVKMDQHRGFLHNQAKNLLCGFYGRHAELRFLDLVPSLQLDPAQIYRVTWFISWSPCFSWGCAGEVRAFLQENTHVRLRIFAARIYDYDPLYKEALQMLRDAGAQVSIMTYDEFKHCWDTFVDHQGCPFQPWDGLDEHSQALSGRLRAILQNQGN
Nonstructural protein 1, sequence (Q194T2 whole entry): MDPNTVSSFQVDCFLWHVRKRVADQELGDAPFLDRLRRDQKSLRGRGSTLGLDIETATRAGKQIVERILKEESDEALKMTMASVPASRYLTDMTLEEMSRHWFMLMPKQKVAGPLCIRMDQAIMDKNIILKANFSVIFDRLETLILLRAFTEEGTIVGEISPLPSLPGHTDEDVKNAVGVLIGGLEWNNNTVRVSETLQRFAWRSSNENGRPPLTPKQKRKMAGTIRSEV
FAD-linked sulfhydryl oxidase ALR, sequence (P55789 whole entry): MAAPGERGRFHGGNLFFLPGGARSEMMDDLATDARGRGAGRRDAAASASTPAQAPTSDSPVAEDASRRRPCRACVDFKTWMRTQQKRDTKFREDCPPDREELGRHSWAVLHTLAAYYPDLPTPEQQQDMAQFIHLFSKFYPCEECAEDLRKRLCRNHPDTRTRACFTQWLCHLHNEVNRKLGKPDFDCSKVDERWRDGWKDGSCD
DNA dC->dU-editing enzyme APOBEC-3G, sequence (Q9HC16 whole entry): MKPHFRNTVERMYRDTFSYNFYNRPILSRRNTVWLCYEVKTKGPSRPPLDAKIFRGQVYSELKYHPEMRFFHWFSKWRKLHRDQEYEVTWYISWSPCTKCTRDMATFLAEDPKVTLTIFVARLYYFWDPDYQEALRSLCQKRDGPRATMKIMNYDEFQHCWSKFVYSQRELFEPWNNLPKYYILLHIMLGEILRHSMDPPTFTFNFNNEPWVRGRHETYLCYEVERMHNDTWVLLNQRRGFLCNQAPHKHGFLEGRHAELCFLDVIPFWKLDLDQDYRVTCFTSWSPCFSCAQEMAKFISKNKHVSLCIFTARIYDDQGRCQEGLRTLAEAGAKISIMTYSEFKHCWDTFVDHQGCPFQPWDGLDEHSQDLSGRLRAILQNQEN

In the case of `COc1cc(-c2nnc(-c3ccc(S(=O)(=O)c4ccccc4)cc3)o2)cc(OC)c1OC`, the IC50 on Estrogen receptor is > 50 µM (not active).

Regarding `COc1ccccc1NC(=O)C1C2CCCCC21` (stereo not given), the IC50 against Prothrombin is recorded as > 50 µM (not active). For `CC(=O)n1cc(/C=N/NC(=O)c2sc(C)nc2C)c2ccccc21`, the EC50 in assay [1] is given as > 91.7 µM (not active). Also, the IC50 in the assay on H9c2 was > 79 µM (inactive). For the molecule `Nc1nncn1C(=O)CCc1ccccc1`, the concentration for half-maximal inhibition (IC50) on Prothrombin was 0.605 µM (active).

As for `CCCS(=O)(=O)N1CCC(C(=O)NCc2ccc(F)cc2)CC1`, at Aminopeptidase N, the half-inhibitory concentration (IC50) was 31.6 µM (active). `O=C(Nc1nc2ccccc2s1)c1cc2c(s1)-c1ccccc1OC2`: on Estrogen receptor, the IC50 is > 50 µM (not active).

Regarding `CCC(=O)n1nc(-c2ccc(Cl)cc2)nc1SC`, the IC50 at Prothrombin was 7.14 µM (active).

`COc1cc(/C=C2\SC(=S)N(C(Cc3ccccc3)C(=O)O)C2=O)ccc1O` (stereo not given): the half-inhibitory concentration (IC50) is 42.3 µM (active) on Aminopeptidase N and 65 µM (active) on Large T antigen. In the case of `C[n+]1cnn2c1SCC1(COC1)C2`, the IC50 in assay [2] is > 100 µM (inactive); in assay [3] it was 4.59 µM (active). On to `CCOC(=O)C1CCN(S(=O)(=O)c2cccc(-c3cn4cccc(C)c4n3)c2)CC1`, for which the IC50 in assay [4] is > 100 µM (active). Consider `COc1ccc(N(CC(=O)N2CCCCCC2)S(=O)(=O)c2ccccc2[N+](=O)[O-])c(OC)c1`, for which the IC50 was 4.83 µM (active) in assay [5], > 100 µM (inactive) in [2], 5.63 µM (active) in assay [6] and 11.9 µM (active) in [3].

Turning to `CC(=O)c1ccc(Nc2nc(=O)c3cccnc3s2)cc1`, the IC50 in assay [4] was > 100 µM (active). Turning to `COC(=O)C1CC(=O)c2ccsc2C1` (stereo not given), at Prothrombin, the half-inhibitory concentration (IC50) is on record as > 50 µM (not active). `CCN(CC)c1ccc(NC(=O)c2ccc(Br)o2)cc1`: the IC50 was 25.9 µM (active) in assay [7] and > 100 µM (active) in assay [4]. The half-maximal activity concentration (AC50) in assay [8] is 0.745 µM (active).

Turning to `COc1ccccc1N1CCN(C(=O)c2cc(-c3cccs3)on2)CC1`, the concentration for half-maximal inhibition (IC50) in [4] is > 100 µM (active). In the case of `Oc1ccc(/C=N/N(c2ccccc2)c2ccccc2)c(O)c1O`, the EC50 in assay [9] is > 38 µM (not active); in assay [10], > 160 µM (inactive). Moreover, the figures for the IC50 (at Nonstructural protein 1; in [2]; in assay [3]) were 47.6 µM (active), 31.7 µM (active) and > 100 µM (inactive), respectively. Take `Cn1c(N)c(C(=O)Nc2ccccc2F)sc1=S`: the half-maximal effective concentration (EC50) in [1] was 0.857 µM (active). On the same count and under the same terms, with `Cn1c(=O)c2c(nc(/C=C/c3cccc(Cl)c3)n2C)n(C)c1=O` the figure was 3.34 µM (active).
